Assay [1] concerns the target T1, Glutamate NMDA receptor (Rattus norvegicus) (UniProt P35439+Q00959+Q00960+Q00961+Q62645+Q8VHN2+Q9R1M7).
Assay [2] has as its target T1, Glutamate NMDA receptor (Rattus norvegicus). The experiment in a line: Antagonistic activity against N-methyl-D-aspartate glutamate receptor antagonist was determined in rat cortical slice preparation at concentration up to 5 mM; not active. In kind it is functional.
Assay [3] has the same target. The assay can be described thus: Agonistic activity against N-methyl-D-aspartate glutamate receptor was determined in rat cortical slice preparation at concentration up to 5 mM; Not active. In kind it is functional.
The target is the same in assay [4]. The experiment in a line: Effective dose required for agonistic activity against N-methyl-D-aspartate glutamate receptor was determined in rat cortical slice preparation. Type of assay: functional.
Assay [5] has the same target. The experiment in a line: Antagonistic activity against N-methyl-D-aspartate glutamate receptor antagonist was determined in rat cortical slice preparation at concentration up to 1 mM; not active. Type of assay: functional.
For assay [6] the target is unchanged. The experiment in a line: Antagonistic activity against N-methyl-D-aspartate glutamate receptor antagonist was determined in rat cortical slice preparation at concentration up to 100 mM; not active. In kind it is functional.
Assay [7] shares this target. The assay can be described thus: Antagonistic activity against N-methyl-D-aspartate glutamate receptor antagonist was determined in rat cortical slice preparation at concentration up to 100 mM; Active. Type of assay: functional.

Molecules are shown by their SMILES. Activity calls are given as the source filed them. No cut-off for these calls is given here.

In assay [1], `CN[C@H](CC(=O)O)C(=O)O` yielded an ED50 of 15 µM.
Take `O=C(O)[C@@H]1CCC[C@H](C(=O)O)N1`: in assay [2], the NA result is “inactive”. Also, in assay [3], the ED50 result was “inactive”.
As to `O=C(O)[C@@H]1CCCN[C@H]1C(=O)O` (relative stereo), the ED50 in assay [4] was 35 µM.
Consider `O=C(O)[C@@H]1CCN[C@@H](C(=O)O)C1` (relative stereo), for which the ED50 in assay [4] came to 60 µM.
In the case of `O=C(O)[C@@H]1CC[C@H](C(=O)O)NC1` (relative stereo), the NA result in assay [5] is “inactive”.
Consider `O=C(O)[C@H]1CCCN[C@H]1C(=O)O` (relative stereo), for which the NA result in assay [6] was “inactive”. The compound further yielded an ED50 in assay [4] of 15 µM.
As to `O=C(O)[C@H]1CCN[C@@H](C(=O)O)C1` (relative stereo), in assay [7], the A entry is “Active”. Moreover, the ED50 entry in assay [3] was “inactive”.
Take `O=C(O)[C@H]1CC[C@H](C(=O)O)NC1` (relative stereo): the NA result in assay [2] was “inactive”. Also, the ED50 result in assay [3] is “inactive”.

The values above are taken from ChEMBL document CHEMBL1125143, “Relationship between structure, conformational flexibility, and biological activity of agonists and antagonists at the N-methyl-D-aspartic acid subtype of excitatory amino acid receptors” (J Med Chem, 1990).
